The test system of assay [1] is CL98001 (Candida lusitaniae). In words: Anti-Candida in vitro assay, CL98001. As to conditions: Clavispora lusitaniae; Candida lusitaniae CL98001, mean of triplicate; read-out: MIC (IC80) CL98001. The format is cell-based. Summed up: (§1)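 Alamar Blue fluorescence, ex 550 nm/em 590 nm, read after 4 h dye incubation, gives viability. Cells (10^3 cells/mL final) grown with compound dilutions in MOPS-buffered (0.165 M) RPMI 1640 plus 2% glucose, 24 h, 37 °C. MIC reported as mean of triplicates.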

Assay [2] addresses T1, 17α-hydroxylase/17,20-lyase (CYP17) (Homo sapiens, UniProt P05093).
T1 sequence (P05093 1-508): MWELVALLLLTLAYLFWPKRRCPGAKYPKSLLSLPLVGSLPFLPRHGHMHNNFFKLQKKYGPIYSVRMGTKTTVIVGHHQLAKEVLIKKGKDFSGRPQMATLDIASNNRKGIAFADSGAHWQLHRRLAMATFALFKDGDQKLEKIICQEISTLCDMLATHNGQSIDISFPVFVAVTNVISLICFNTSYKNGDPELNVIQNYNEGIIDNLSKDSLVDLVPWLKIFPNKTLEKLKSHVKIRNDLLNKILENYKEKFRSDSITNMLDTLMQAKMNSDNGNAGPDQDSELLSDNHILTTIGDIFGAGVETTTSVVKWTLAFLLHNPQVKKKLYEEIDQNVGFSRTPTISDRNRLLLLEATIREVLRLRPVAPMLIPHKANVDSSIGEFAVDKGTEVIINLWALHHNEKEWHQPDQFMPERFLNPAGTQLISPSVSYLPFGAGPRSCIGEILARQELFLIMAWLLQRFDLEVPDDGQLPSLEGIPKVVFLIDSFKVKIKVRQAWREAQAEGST
In words: In vitro inhibition of 17α-hydroxylase/17,20-lyase. Format: biochemical. The conditions noted are these: at 2.5 µM.
Description: The assay was performed similar to described methods [29, 52]. […] Microsomal protein was added to start the reaction. […] After the addition of 1 mL EtOAc, the vials were shaken then centrifuged. The organic phase was removed, vortexed with phosphate buffer (250 µL), 1 M aqueous HCl (50 µL), and then dried. Aliquots of 25 µL methanol, containing 250 pmol of fluorocortisol acetate as internal standard, were added to the extracts. The samples (20 µL) were submitted to HPLC (RP-8 column, methanol/water 1:1, v/v) and measured using UV (240 nm).

Another assay has as its target T2, aromatase (CYP19) (Homo sapiens, UniProt P11511).
T2 construct: Microsomal protein (0.1 mg) was added to start the reaction; from tissue; host or cells: microsomes; ('human placental microsomes')
T2 sequence (P11511 1-503): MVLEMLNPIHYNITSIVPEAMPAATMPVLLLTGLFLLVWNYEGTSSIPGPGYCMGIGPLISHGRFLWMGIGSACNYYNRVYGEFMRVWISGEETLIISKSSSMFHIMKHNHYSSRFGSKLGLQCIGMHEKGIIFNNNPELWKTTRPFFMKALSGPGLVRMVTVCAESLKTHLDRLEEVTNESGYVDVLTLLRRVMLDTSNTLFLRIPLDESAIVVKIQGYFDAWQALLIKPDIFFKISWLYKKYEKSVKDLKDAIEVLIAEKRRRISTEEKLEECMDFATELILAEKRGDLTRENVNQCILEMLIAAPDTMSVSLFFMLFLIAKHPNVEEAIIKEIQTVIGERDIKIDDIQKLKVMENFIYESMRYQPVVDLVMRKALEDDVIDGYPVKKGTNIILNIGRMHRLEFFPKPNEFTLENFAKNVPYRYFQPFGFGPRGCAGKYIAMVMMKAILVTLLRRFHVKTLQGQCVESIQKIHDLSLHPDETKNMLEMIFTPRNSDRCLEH
In words: In vitro inhibition of aromatase. Format: biochemical. The conditions noted are these: at 36 µM.

For a further assay, the system named is CK98002 (Candida krusei). Kind of assay: Anti-Candida in vitro assay, CK98002. The format is cell-based. As to conditions: Pichia kudriavzevii; Candida krusei CK98002, mean of triplicate; read-out: MIC (IC80) CK98002. In a few lines:
as §1

Assay [3] has as its system CA98005 (Candida albicans). Kind of assay: Anti-Candida in vitro assay, CA98005. The format is cell-based. As to conditions: Candida albicans CA98005, mean of triplicate; read-out: MIC (IC80) CA98005. Summed up: as §1

SMILES strings stand for the structures. In brackets after ≈: the same amount, converted by molar mass. Some results are limits rather than exact numbers.

Description for aromatase (CYP19): The assay was performed according to previously described methods [49, 50, 51] by monitoring the enzyme activity by measuring the ^3H2O formed from [1β-^3H]androstenedione during aromatization. […] Microsomal protein (0.1 mg) was added to start the reaction. After incubation of 15 min at 30 °C, the reaction was stopped by adding 200 µL of a cold HgCl2 solution (1 mM). After the addition of 200 µL of an aqueous dextran-coated charcoal (DCC) suspension (2%), the vials were shaken then centrifuged to separate the charcoal-absorbed steroids. Aliquots of the supernatant were assayed for ^3H2O by counting in a scintillation mixture using a LKB-Wallac β-counter.

Take `O[C@@](Cn1cncn1)(Cn1ccc2ccccc21)c1ccc(Cl)cc1Cl` [(+)-(R)-8g]: the minimal inhibitory concentration (MIC) in assay [1] was 9.68 µg/mL (≈ 25 µM); with CK98002 (Candida krusei), 22.1 µg/mL (≈ 57 µM); in assay [3], 2.71 µg/mL (≈ 6.99 µM). Further, the inhibition at […] in assay [2] is < 5%. Further, the inhibition at 36 µM at aromatase (CYP19) was 51%.

As for `O[C@](Cn1cncn1)(Cn1ccc2ccccc21)c1ccc(Cl)cc1Cl` [(−)-(S)-8g], the values for the minimal inhibitory concentration (MIC) (in assay [1]; in the assay with CK98002 (Candida krusei); in assay [3]) were 0.024 µg/mL (≈ 0.062 µM), 0.022 µg/mL (≈ 0.0568 µM) and 0.026 µg/mL (≈ 0.0671 µM), respectively. In addition, the inhibition at […] in assay [2] was < 5%. Moreover, at aromatase (CYP19), the inhibition at 36 µM came out at 72%.

Turning to `OC(Cn1cncn1)(Cn1ccc2ccccc21)c1ccc(Cl)cc1Cl` (stereo not drawn) [Compound 8g, 2-(2,4-Dichlorophenyl)-3-(1H-indol-1-yl)-1-(1H-1,2,4-triazol-1-yl)-propan-2-ol], the MIC was < 0.004 µg/mL in assay [1], 2.79 µg/mL (≈ 7.2 µM) with CK98002 (Candida krusei) and < 0.004 µg/mL in assay [3]. The inhibition at […] in assay [2] is < 10%. For the same compound, at aromatase (CYP19), the inhibition at 36 µM amounted to 27%.

The values above are taken from article PMC7464559, “Synthesis, Optimization, Antifungal Activity, Selectivity, and CYP51 Binding of New 2-Aryl-3-azolyl-1-indolyl-propan-2-ols” (Pharmaceuticals, 2020).
